Data published in patent US6347239B1, “Method of evaluating the efficacy of drug on brain nerve cells” (priority 1998, dated 2002).
Values joined by “and” are separate entries in the source; they are usually repeats but may differ in a detail not shown here. Equal values may be shown once.

Legend:
[1] = system: primary motor cortex of patients with ALS; test: Proton MRSI of NAA/Cr in the motor cortex of ALS patients, paired scans; format: in vivo, human
Method: Nineteen patients with a diagnosis of definite or probable ALS, as per the El Escorial Criteria, ^12 were recruited. Each patient underwent paired MRSI examinations. […] Thus, closely paired MRSIs were obtained off medication in 12 subjects who formed a disease control group ALS-C.
Brain proton spectroscopy was performed using a Philips Gyroscan ACS3 operating at 1.5 Tesla (Philips Medical System, Best, The Netherlands). After axial and sagittal scout images and sagittal T1-weighted images were obtained, axial T1-weighted images were acquired with an angulation determined from sagittal T1-weighted images such that the transverse plane was perpendicular to the rostral-caudal axis of the precentral gyrus. These transverse scans were used to select a volume of interest (VOI) centered on the central sulcus, high in the cranium comprised of predominantly cortical brain (FIG. 1A). Cranio-caudal (CC) thickness was 20 mm. Anteroposterior (AP) and left-right (LR) dimensions were adjusted for each patient depending on the skull size and shape to maximize size without including skull. MRSI was performed using a 90°-180°−180° (PRESS) sequence (TR=1750, TE=272, 250×250 mm FOV, 32×32 phase-encoding steps) with prior suppression of water by selective excitation. One patient had all their scans performed with TR=1500. The ROI was repositioned in the identical location in follow up scans of each patient.
Post-processing of data, included a mild Gaussian filter and an inverse two-dimensional Fourier transform of both the water-suppressed and -unsuppressed ^1H-MRS. This was accomplished with XUNSPEC1 software (Philips Medical Systems Best, The Netherlands) running on a Sun SPARC™ station.
The residual water signal was removed using the HSVD (Hankel Singular-Value Decomposition) algorithm which models the time-domain ^1H-MRS data in each voxel with exponentially damped sinusoids. Peaks used to model the water signal were then subtracted from the original data. This algorithm is fully automatic and requires no prior knowledge or operator intervention.
Automated calculation of metabolite peak areas was performed on operator-selected voxels within the motor cortex. Peaks were digitally integrated to yield areas. These values were normalized by dividing them by that of Cr.
The NAA/Cr of the primary motor cortex was determined by averaging the NAA/Cr intensities of voxels located in the precentral gyrus of both hemispheres (FIGS. 1A and 1B). The difference in motor cortex NAA/Cr between two scans (ΔNAA/Cr) obtained approximately 3 weeks apart was determined for each ALS patient in the treated (ALS-R) and control (ALS-C) groups. ΔNAA/Cr was compared between the treated and control groups using a two-sample two-sided Student's t-test. In addition, a two-sided paired Student's t-test was used to evaluate the significance of […] within each group.

patients with ALS = test: Clinical status and muscle strength (MRC grades) of ALS patients during therapy; format: in vivo, human
Excerpt: Deltoid and iliopsoas MRC grades improved bilaterally from 4 to 4+.
Several patients agreed to longer term follow up studies. […] Patient #17 was never treated: NAA/Cr decreased from 2.51 to 2.42 after 21 days and further to 2.11 4 months later; their symptoms progressed slowly.

Nc1nc2ccc(OC(F)(F)F)cc2s1 [RILUZOLE, 2-amino-6-trifluoromethoxy-benzothiazole]
average NAA/Cr for the group after therapy ([1]; 11 patients (ALS-R), 24±8 days after initiating therapy, increased from 2.14±0.26, mean±SD, p=0.044): 2.27±0.24
ΔNAA/Cr = Change in NAA/Cr between MRSI scan #1 and #2 ([1]; ALS-R group, scan just before treatment vs approximately three weeks after starting 50 mg bid, individual patients 1-11 and group mean (n = 11)): −0.011 and 0.111 and 0.438 and 0.295 and 0.118 and 0.234 and −0.021 and −0.251 and 0.222 and 0.290 and 0.034
NAA/Cr MRSI #2 (NAA/Cr of motor cortex) ([1]; ALS-R group, second scan approximately three weeks after starting 50 mg bid, individual patients 1-11 and group mean (n = 11)): 2.508 and 2.643 and 2.442 and 2.416 and 2.423 and 2.291 and 1.890 and 2.083 and 2.247 and 1.969 and 2.053
change in NAA/Cr for the treated group with respect to the untreated group (increase) ([1]; ALS-R vs ALS-C, approximately 3 weeks, mean±SE, p=0.008): 0.22±0.095
NAA/Cr ([1]; patient #2, after 35 days of therapy, from 2.53): 2.64
NAA/Cr ([1]; patient #2, three months later than the 35-day scan): 2.74
NAA/Cr ([1]; patient #3, after 18 days of therapy, from 2.00): 2.44
NAA/Cr ([1]; patient #3, three months later than the 18-day scan): 1.46
NAA/Cr ([1]; patient #5, after 21 days of therapy, from 2.24): 2.31
NAA/Cr ([1]; patient #5, one year later): 2.42
signal from NAA in the motor cortex ([1]; patients with ALS, acute (within 3 weeks) after treatment): increase
clinical status (patients with ALS; patient #2, three months after the 35-day scan): increased strength and fewer cramps
clinical status (patients with ALS; patient #3, three months after the 18-day scan): significant clinical deterioration
clinical status (weakness, predominantly LMN features) (patients with ALS; patient #5, one year later): slowly progressed
symptomatic and functional changes (patients with ALS; patient #11, after 35 days of therapy): improved strength and reduced disability
